Type in all cases: functional
Experiment [1] has as its system Escherichia coli. The experiment in a line: Antibacterial activity against Escherichia coli.
Experiment [2] has as its system Pseudomonas aeruginosa. Kind of experiment: Antibacterial activity against Pseudomonas aeruginosa.
The test system of experiment [3] is Staphylococcus aureus. The experiment in a line: Antibacterial activity against Staphylococcus aureus.
In experiment [4] the test system is Staphylococcus aureus. Kind of experiment: Antibacterial activity against Staphylococcus aureus after 3 to 7 days by cup diffusion method.
Experiment [5] concerns Bacillus subtilis. Kind of experiment: Antibacterial activity against Bacillus subtilis after 3 to 7 days by cup diffusion method.
Experiment [6] concerns Escherichia coli. The experiment in a line: Antibacterial activity against Escherichia coli after 3 to 7 days by cup diffusion method.
The test system of experiment [7] is Pseudomonas aeruginosa. Kind of experiment: Antibacterial activity against Pseudomonas aeruginosa after 3 to 7 days by cup diffusion method.
For experiment [8], the system named is Mycolicibacterium phlei. Kind of experiment: Antibacterial activity against Mycobacterium phlei clinical isolate after 3 to 7 days by cup diffusion method.
Experiment [9] relates to Aggregatibacter actinomycetemcomitans. Kind of experiment: Antibacterial activity against Aggregatibacter actinomycetemcomitans ATCC 29524 after 3 to 7 days by cup diffusion method.
Experiment [10] deals with Staphylococcus aureus. Kind of experiment: Antibacterial activity against Staphylococcus aureus assessed as zone of inhibition at 10 mg/ml after 3 to 7 days by cup diffusion method. To be noted: read-out: IZ.
Experiment [11] concerns Bacillus subtilis. The experiment in a line: Antibacterial activity against Bacillus subtilis assessed as zone of inhibition at 10 mg/ml after 3 to 7 days by cup diffusion method. The conditions noted are these: read-out: IZ.
In experiment [12] the test system is Escherichia coli. Kind of experiment: Antibacterial activity against Escherichia coli assessed as zone of inhibition at 10 mg/ml after 3 to 7 days by cup diffusion method. The conditions noted are these: read-out: IZ.
Experiment [13] relates to Pseudomonas aeruginosa. Kind of experiment: Antibacterial activity against Pseudomonas aeruginosa assessed as zone of inhibition at 10 mg/ml after 3 to 7 days by cup diffusion method. The conditions noted are these: read-out: IZ.
The test system of experiment [14] is Mycolicibacterium phlei. Kind of experiment: Antibacterial activity against Mycobacterium phlei clinical isolate assessed as zone of inhibition at 10 mg/ml after 3 to 7 days by cup diffusion method. To be noted: read-out: IZ.
The subject of experiment [15] is Aggregatibacter actinomycetemcomitans. Kind of experiment: Antibacterial activity against Aggregatibacter actinomycetemcomitans ATCC 29524 assessed as zone of inhibition at 10 mg/ml after 3 to 7 days by cup diffusion method. The conditions noted are these: read-out: IZ.
Setting [16] is: Staphylococcus aureus, read-out: MIC.
Where [17] appears, read: Bacillus subtilis, read-out: MIC.
Where [18] appears, read: Escherichia coli, read-out: MIC.
Where [19] appears, read: Pseudomonas aeruginosa, read-out: MIC.
Where [20] appears, read: Mycolicibacterium phlei, read-out: MIC.
Setting [21] is: Aggregatibacter actinomycetemcomitans, ATCC 29524, read-out: MIC.

Converted amounts (≈) assume the structure as drawn. Where only a bound is given, the exact number is not on record here.

Take `Cc1ccc2c(-c3ccccc3)cc(=O)n(Cc3nnc(S)n3N)c2c1`: the MIC in [1], in experiment [2] and in [3] was 8 to 256 µg/mL (≈ 22 to 704 µM) each time.
For the compound `COc1ccc2c(-c3ccccc3)cc(=O)n(Cc3nnc(S)n3N)c2c1`, the MIC in experiment [1], in experiment [2] and in [3] was 8 to 256 µg/mL (≈ 21.1 to 675 µM) each time.
Take `COc1cccc2c(-c3ccccc3)cc(=O)n(Cc3nnc(S)n3N)c12`: the MIC in [1], in experiment [2] and in [3] was 8 to 256 µg/mL (≈ 21.1 to 675 µM) each time.
On to `Cc1cccc2c(-c3ccccc3)cc(=O)n(Cc3nnc(S)n3N)c12`, for which the MIC in [1], in experiment [2] and in experiment [3] was 8 to 256 µg/mL (≈ 22 to 704 µM) throughout.
As for `COc1ccc2c(c1)c(-c1ccccc1)cc(=O)n2Cc1nnc(S)n1N`, the MIC in experiment [1], in experiment [2] and in [3] was 8 to 256 µg/mL (≈ 21.1 to 675 µM) in each case.
Regarding `Nn1c(S)nnc1Cn1c(=O)cc(-c2ccccc2)c2ccccc21`, the MIC in [1], in experiment [2] and in experiment [3] was 8 to 256 µg/mL (≈ 22.9 to 733 µM) each time.
For the compound `Nn1c(S)nnc1Cn1c(=O)cc(-c2ccccc2)c2cc(Cl)ccc21`, the MIC in [1], in experiment [2] and in experiment [3] was 8 to 256 µg/mL (≈ 20.8 to 667 µM) in each case.
Consider `Nn1c(S)nnc1Cn1c(=O)cc(-c2ccccc2)c2ccc(Cl)cc21`, for which the MIC in experiment [1], in experiment [2] and in [3] was 8 to 256 µg/mL (≈ 20.8 to 667 µM) each time.
Consider `CCn1cc(-c2nc(NC(=O)c3ccc(F)cc3)n[nH]2)c(=O)c2ccc(C)nc21`, for which the MIC entry in experiment [4], in [5], in [6], in experiment [7], in [8] and in experiment [9] was “>=0.031 - 32 ug ml-1” throughout. Moreover, the zone of inhibition at 10000 µg/mL in [10], in experiment [11], in experiment [12], in [13], in [14] and in [15] was 20 to 40 mm each time.
For the compound `Cc1ccc2c(c1)c(-c1ccccc1)cc(=O)n2Cc1nnc(S)n1N`, the MIC in experiment [1], in [2] and in experiment [3] was 8 to 256 µg/mL (≈ 22 to 704 µM) in each case.
Consider `CCn1cc(-c2nc(NC(=O)CCl)n[nH]2)c(=O)c2ccc(C)nc21`, for which the MIC result in [4], in experiment [5], in experiment [6], in [7], in experiment [8] and in experiment [9] was “>=0.031 - 32 ug ml-1” throughout. Moreover, the zone of inhibition at 10000 µg/mL in [10], in experiment [11], in [12], in experiment [13], in experiment [14] and in experiment [15] was 20 to 40 mm throughout.
Turning to `CCn1cc(-c2nc(/N=C/c3ccccc3O)n[nH]2)c(=O)c2cc(Br)c(C)nc21`, the MIC in experiment [4] (setting [16]), in experiment [5] (setting [17]), in experiment [6] (setting [18]), in experiment [7] (setting [19]), in experiment [8] (setting [20]) and in experiment [9] (setting [21]) was 3.68 to 6.3 µM (≈ 1.67 to 2.86 µg/mL) each time. Further, the zone of inhibition at 10000 µg/mL in [10], in [11], in [12], in experiment [13], in [14] and in experiment [15] was 20 to 40 mm in each case.
For `CCn1cc(-c2nc(NC(=O)c3ccc(OC)cc3)n[nH]2)c(=O)c2ccc(C)nc21`, the MIC result in [4], in experiment [5], in [6], in experiment [7], in experiment [8] and in [9] was “>=0.031 - 32 ug ml-1” throughout. The zone of inhibition at 10000 µg/mL in experiment [10], in [11], in experiment [12], in experiment [13], in [14] and in [15] was 20 to 40 mm each time.
Turning to `CCn1cc(-c2nc(/N=C/c3ccc(Cl)cc3)n[nH]2)c(=O)c2cc(Br)c(C)nc21`, the MIC in [4] (setting [16]), in experiment [5] (setting [17]), in experiment [6] (setting [18]), in [7] (setting [19]), in [8] (setting [20]) and in [9] (setting [21]) was 3.68 to 6.3 µM (≈ 1.74 to 2.97 µg/mL) each time. For the same compound, the zone of inhibition at 10000 µg/mL in [10], in experiment [11], in experiment [12], in experiment [13], in [14] and in [15] was 20 to 40 mm in each case.
For the compound `CCn1cc(-c2nc(NC(=O)c3ccc(Cl)cc3)n[nH]2)c(=O)c2ccc(C)nc21`, the MIC entry in experiment [4], in experiment [5], in experiment [6], in [7], in [8] and in experiment [9] was “>=0.031 - 32 ug ml-1” throughout. Further, the zone of inhibition at 10000 µg/mL in [10], in [11], in experiment [12], in experiment [13], in experiment [14] and in experiment [15] was 20 to 40 mm each time.
As to `CCn1cc(-c2nc(/N=C/c3ccc(Br)cc3)n[nH]2)c(=O)c2cc(Br)c(C)nc21`, the MIC in experiment [4] (setting [16]), in [5] (setting [17]), in experiment [6] (setting [18]), in experiment [7] (setting [19]), in [8] (setting [20]) and in experiment [9] (setting [21]) was 3.68 to 6.3 µM (≈ 1.9 to 3.25 µg/mL) in each case. Moreover, the zone of inhibition at 10000 µg/mL in [10], in experiment [11], in experiment [12], in experiment [13], in experiment [14] and in experiment [15] was 20 to 40 mm throughout.
Regarding `CCn1cc(-c2nc(/N=C/c3ccc(Cl)cc3)n[nH]2)c(=O)c2ccc(C)nc21`, the MIC entry in experiment [4], in experiment [5], in experiment [6], in experiment [7], in [8] and in [9] was “>=0.031 - 32 ug ml-1” each time. Moreover, the zone of inhibition at 10000 µg/mL in experiment [10], in experiment [11], in [12], in experiment [13], in experiment [14] and in [15] was 20 to 40 mm in each case.
As for `CCn1cc(-c2nc(/N=C/c3ccccc3)n[nH]2)c(=O)c2ccc(C)nc21`, the MIC result in experiment [4], in experiment [5], in experiment [6], in experiment [7], in experiment [8] and in experiment [9] was “>=0.031 - 32 ug ml-1” each time. The zone of inhibition at 10000 µg/mL in [10], in experiment [11], in experiment [12], in experiment [13], in [14] and in [15] was 20 to 40 mm in each case.
Take `CCn1cc(-c2nc(/N=C/c3ccc(OC)cc3)n[nH]2)c(=O)c2cc(Br)c(C)nc21`: the MIC in experiment [4] (setting [16]), in experiment [5] (setting [17]), in [6] (setting [18]), in experiment [7] (setting [19]), in [8] (setting [20]) and in experiment [9] (setting [21]) was 3.68 to 6.3 µM (≈ 1.72 to 2.94 µg/mL) each time. The zone of inhibition at 10000 µg/mL in [10], in [11], in experiment [12], in [13], in [14] and in experiment [15] was 20 to 40 mm each time.
On to `CCn1cc(-c2nc(NC(=O)c3ccccc3)n[nH]2)c(=O)c2ccc(C)nc21`, for which the MIC result in [4], in experiment [5], in experiment [6], in experiment [7], in [8] and in [9] was “>=0.031 - 32 ug ml-1” each time. The zone of inhibition at 10000 µg/mL in [10], in experiment [11], in [12], in experiment [13], in experiment [14] and in experiment [15] was 20 to 40 mm each time.
`Nn1c(S)nnc1Cn1c(=O)cc(-c2ccccc2)c2cccc(Cl)c21`: the MIC in experiment [1], in [2] and in experiment [3] was 8 to 256 µg/mL (≈ 20.8 to 667 µM) in each case.

Values taken from ChEMBL document CHEMBL4346717, “1,2,4-Triazole-quinoline/quinolone hybrids as potential anti-bacterial agents” (Eur J Med Chem, 2019).
